Assay results reported in patent US11192900B2, “Substituted 1,6-dihydropyridinones and 1,2-dihydroisoquinolinones as bet inhibitors” (NUVATION BIO INC., priority 2018, dated 2021).

molecular target: BRD4-2 (Homo sapiens (Human), UniProt O60885); experiment: Bromodomain and Extraterminal Domain (BET) Binding Assay; conditions: Table 3; read-out: BRD4-2 IC50
Procedure: The bromodomain binding assays were performed by Reaction Biology Corp., Malvern, Pa., USA (www.reactionbiology.com). The BET binding assays were conducted in 384 well microplates in assay buffer (50 mM HEPES-HCl, pH 7.5, 100 mM NaCl, 1 mg/ml BSA, 0.05% CHAPS, and 0.5% DMSO) with compounds added as DMSO stocks at a single concentration or with 10-point dose response titrations. BET protein or assay buffer were delivered to the appropriate wells of the microplate. Test compound was then delivered by acoustic technology via a Labcyte Echo550 liquid handler. The microplate was centrifuged for 5 min and pre-incubated for 30 min at RT with gentle shaking. The ligand (histone H4 peptide (1-21) K5/8/12/16Ac-biotin) was delivered and the microplate was again centrifuged for 5 min and allowed to incubate for 30 min at RT with gentle shaking. Donor beads were then added in the absence of light and the microplate was centrifuged and gently shaken. After 5 min, acceptor beads were added in the absence of light and the microplate was centrifuged and gently shakenin the dark for 60 min. The microplate was read using a Perkin Elmer EnSpire Alpha plate reader (λEx/λEm=680/520-620 nm). Percent inhibition was calculated relative to positive and negative controls on a per plate basis. For titration experiments, IC50 values were determined by fitting the percent inhibition versus compound concentration.

| Structure (SMILES) | IC50 [nM] |
| --- | --- |
| C=CC(=O)n1cc(-c2cc(NS(=O)(=O)CC)ccc2Oc2ccc(F)cc2F)c2ccccc2c1=O [Compound 662, N-(3-(2-acryloyl-1-oxo-1,2-dihydroisoquinolin-4-yl)-4-(2,4-difluorophenoxy)phenyl)ethanesulfonamide] | > 10000 |
| C=CC(=O)Nc1cccc(Oc2ccc(F)cc2)c1-c1cc(NC)c(=O)n(C)c1 [Compound 23, N-(3-(4-fluorophenoxy)-2-(1-methyl-5-(methylamino)-6-oxo-1,6-dihydropyridin-3-yl)phenyl)acrylamide] | > 10000 |
| C=CC(=O)Nc1ccc(Oc2ccc(C)cc2)c(-c2cc(NC)c(=O)n(C)c2)c1 [Compound 6, N-(3-(1-methyl-5-(methylamino)-6-oxo-1,6-dihydropyridin-3-yl)-4-(p-tolyloxy)phenyl)acrylamide] | 120 |
| C=CS(=O)(=O)Nc1ccc(Oc2ccc(F)cc2F)c(-c2cnc(=O)n(C)c2)c1 [Compound 19, N-(4-(2,4-difluorophenoxy)-3-(1-methyl-2-oxo-1,2-dihydropyrimidin-5-yl)phenyl)ethenesulfonamide] | 1450 |
| C=CC(=O)N(C)c1ccc(Oc2ccc(F)cc2F)c(-c2cn(C)c(=O)c3ccccc23)c1 [Compound 396, N-(4-(2,4-difluorophenoxy)-3-(2-methyl-1-oxo-1,2-dihydroisoquinolin-4-yl)phenyl)-N-methylacrylamide] | 298 |
| C=CC(=O)Nc1ccc(Oc2ccc(F)cc2F)c(-c2cn(C)c(=O)c3ccccc23)c1 [Compound 9, N-(4-(2,4-difluorophenoxy)-3-(2-methyl-1-oxo-1,2-dihydroisoquinolin-4-yl)phenyl)acrylamide] | 319 |
| C=CS(=O)(=O)Nc1ccc(Oc2ccc(F)cc2)c(-c2cn(C)c(=O)c3ccccc23)c1 [Compound 11, N-(4-(4-fluorophenoxy)-3-(2-methyl-1-oxo-1,2-dihydroisoquinolin-4-yl)phenyl)ethenesulfonamide] | 14 |
| C=CS(=O)(=O)Nc1ccc(OC)c(-c2cc(NC)c(=O)n(C)c2)c1 [Compound 20, N-(4-methoxy-3-(1-methyl-5-(methylamino)-6-oxo-1,6-dihydropyridin-3-yl)phenyl)ethenesulfonamide] | 3860 |
| C=CS(=O)(=O)Nc1ccc(Nc2ccc(F)cc2F)c(-c2cc(NC)c(=O)n(C)c2)c1 [Compound 21, N-(4-(2,4-difluorophenylamino)-3-(1-methyl-5-(methylamino)-6-oxo-1,6-dihydropyridin-3-yl)phenyl)ethenesulfonamide] | 11 |
| C#CC(=O)Nc1ccc(Oc2ccc(F)cc2F)c(-c2cn(C)c(=O)c3ccccc23)c1 [Compound 74, N-(4-(2,4-difluorophenoxy)-3-(2-methyl-1-oxo-1,2-dihydroisoquinolin-4-yl)phenyl)propiolamide] | 239 |
| C=CC(=O)N(C)c1ccc(Oc2ccc(F)cc2F)c(-c2cc(NC)c(=O)n(C)c2)c1 [Compound 394, N-(4-(2,4-difluorophenoxy)-3-(1-methyl-5-(methylamino)-6-oxo-1,6-dihydropyridin-3-yl)phenyl)-N-methylacrylamide] | 134 |
| C=CS(=O)(=O)Nc1ccc(Oc2ccc(C)cc2)c(-c2cn(C)c(=O)c3ccccc23)c1 [Compound 13, N-(3-(2-methyl-1-oxo-1,2-dihydroisoquinolin-4-yl)-4-(p-tolyloxy)phenyl)ethenesulfonamide] | 24 |
| C=CC(=O)Nc1ccc(Oc2ccc(Cl)c(F)c2)c(-c2cn(C)c(=O)c3ccccc23)c1 [Compound 32, N-(4-(4-chloro-3-fluorophenoxy)-3-(2-methyl-1-oxo-1,2-dihydroisoquinolin-4-yl)phenyl)acrylamide] | 717 |
| C=CC(=O)Nc1ccc(Oc2ccc(F)cc2F)c(-c2nn(C)c(=O)cc2OC)c1 [Compound 403, N-(4-(2,4-difluorophenoxy)-3-(4-methoxy-1-methyl-6-oxo-1,6-dihydropyridazin-3-yl)phenyl)acrylamide] | 206 |
| C=CC(=O)Nc1ccc(Nc2c(F)cccc2F)c(-c2cn(C)c(=O)c3ccccc23)c1 [Compound 319, N-(4-(2,6-difluorophenylamino)-3-(2-methyl-1-oxo-1,2-dihydroisoquinolin-4-yl)phenyl)acrylamide] | 1800 |
| CC#CC(=O)Nc1ccc(Oc2ccc(F)cc2F)c(-c2cn(C)c(=O)c3ccccc23)c1 [Compound 393, N-(4-(2,4-difluorophenoxy)-3-(2-methyl-1-oxo-1,2-dihydroisoquinolin-4-yl)phenyl)but-2-ynamide] | 261 |
| C=CS(=O)(=O)Nc1ccc(Oc2ccc(F)cc2)c(-c2cc(NC)c(=O)n(C)c2)c1 [Compound 7, N-(4-(4-fluorophenoxy)-3-(1-methyl-5-(methylamino)-6-oxo-1,6-dihydropyridin-3-yl)phenyl)ethenesulfonamide] | 24 |

| Structure (SMILES) | IC50 [nM] |
| --- | --- |
| C=CS(=O)(=O)Nc1ccc(Oc2ccc(C)cc2)c(-c2cc(NC)c(=O)n(C)c2)c1 [Compound 4, N-(3-(1-methyl-5-(methylamino)-6-oxo-1,6-dihydropyridin-3-yl)-4-(p-tolyloxy)phenyl)ethenesulfonamide] | 22 |
| C=CC(=O)Nc1ccc(Oc2ccc(C)cc2)c(-c2cn(C)c(=O)c3ccccc23)c1 [Compound 25, N-(3-(2-methyl-1-oxo-1,2-dihydroisoquinolin-4-yl)-4-(p-tolyloxy)phenyl)acrylamide] | 264 |
| C=CS(=O)(=O)N(C)c1ccc(Oc2ccc(F)cc2F)c(-c2cc(NC)c(=O)n(C)c2)c1 [Compound 15, N-(4-(2,4-difluorophenoxy)-3-(1-methyl-5-(methylamino)-6-oxo-1,6-dihydropyridin-3-yl)phenyl)-N-methylethenesulfonamide] | 34 |
| C=CC(=O)Nc1ccc(Oc2ccc(F)cc2)c(-c2cn(C(C)C)c(=O)c3ccccc23)c1 [Compound 28, N-(4-(4-fluorophenoxy)-3-(2-isopropyl-1-oxo-1,2-dihydroisoquinolin-4-yl)phenyl)acrylamide] | 17900 |
| C=CS(=O)(=O)Nc1ccc(Oc2ccc(F)cc2F)c(-c2cn(C)c(=O)c3c2CCNC3)c1 [Compound 14, N-(4-(2,4-difluorophenoxy)-3-(2-methyl-1-oxo-1,2,5,6,7,8-hexahydro-2,7-naphthyridin-4-yl)phenyl)ethenesulfonamide] | > 10000 |
| C=CS(=O)(=O)Nc1ccc(Oc2ccc(F)cc2F)c(-c2cn(C)c(=O)c3ccccc23)c1 [Compound 10, N-(4-(2,4-difluorophenoxy)-3-(2-methyl-1-oxo-1,2-dihydroisoquinolin-4-yl)phenyl)ethenesulfonamide] | 56 |
| Cc1cccc(C)c1Oc1ccc(NC(=O)/C=C/CN(C)C)cc1-c1cn(C)c(=O)c2ccccc12 [Compound 410, (E)-4-(dimethylamino)-N-(4-(2,6-dimethylphenoxy)-3-(2-methyl-1-oxo-1,2-dihydroisoquinolin-4-yl)phenyl)but-2-enamide] | 758 |
| C=CC(=O)Nc1ccc(Oc2ccc(F)cc2F)c(-c2cn(C)c(=O)c3c2OCC(=O)N3)c1 [Compound 404, N-(4-(2,4-difluorophenoxy)-3-(6-methyl-3,5-dioxo-3,4,5,6-tetrahydro-2H-pyrido[4,3-b][1,4]oxazin-8-yl)phenyl)acrylamide] | 1830 |
| C=CS(=O)(=O)Nc1ccc(Oc2ccc(OC)cc2)c(-c2cc(NC)c(=O)n(C)c2)c1 [Compound 8, N-(4-(4-methoxyphenoxy)-3-(1-methyl-5-(methylamino)-6-oxo-1,6-dihydropyridin-3-yl)phenyl)ethenesulfonamide] | 17 |
| C=CC(=O)Nc1ccc(Oc2ccc(OC)cc2)c(-c2cc(NC)c(=O)n(C)c2)c1 [Compound 5, N-(4-(4-methoxyphenoxy)-3-(1-methyl-5-(methylamino)-6-oxo-1,6-dihydropyridin-3-yl)phenyl)acrylamide] | 142 |
| C=CC(=O)Nc1ccc(Oc2ccc(Cl)cc2)c(-c2cn(C)c(=O)c3ccccc23)c1 [Compound 31, N-(4-(4-chlorophenoxy)-3-(2-methyl-1-oxo-1,2-dihydroisoquinolin-4-yl)phenyl)acrylamide] | 413 |
| C=CC(=O)Nc1ccc(Nc2ccc(F)cc2F)c(-c2cc(NC)c(=O)n(C)c2)c1 [Compound 288, N-(4-(2,4-difluorophenylamino)-3-(1-methyl-5-(methylamino)-6-oxo-1,6-dihydropyridin-3-yl)phenyl)acrylamide] | 889 |
| C=CS(=O)(=O)Nc1ccc(Oc2ccc(F)cc2F)c(-c2c[nH]c(=O)c(NC)c2)c1 [Compound 22, N-(4-(2,4-difluorophenoxy)-3-(5-(methylamino)-6-oxo-1,6-dihydropyridin-3-yl)phenyl)ethenesulfonamide] | 3850 |
| C=CS(=O)(=O)Nc1ccc(Oc2ccc(F)cc2F)c(-c2c[nH]c(=O)c3ccccc23)c1 [Compound 18, N-(4-(2,4-difluorophenoxy)-3-(1-oxo-1,2-dihydroisoquinolin-4-yl)phenyl)ethenesulfonamide] | > 10000 |
| C=CC(=O)Nc1ccc(N(C)c2ccc(F)cc2F)c(-c2cn(C)c(=O)c3sc(C(=O)NCC)cc23)c1 [Compound 612, 4-(5-acrylamido-2-((2,4-difluorophenyl)(methyl)amino)phenyl)-N-ethyl-6-methyl-7-oxo-6,7-dihydrothieno[2,3-c]pyridine-2-carboxamide] | > 10000 |
| C=CC(=O)Nc1ccc(OC(F)(F)F)c(-c2cn(C)c(=O)c3ccccc23)c1 [Compound 27, N-(3-(2-methyl-1-oxo-1,2-dihydroisoquinolin-4-yl)-4-(trifluoromethoxy)phenyl)acrylamide] | 3250 |
